Measured values: patent publication US20090298834A1, “4-(AMINOMETHYL)CYCLOHEXANAMINE DERIVATIVES AS CALCIUM CHANNEL BLOCKERS” (priority 2008, published 2009)

Assays:
[1] = biological target: T1, human α1G T-type channels (Homo sapiens, UniProt O43497); assay: T-type calcium channel block, whole cell patch clamp (α1G); assay type: cell-based; conditions: HEK cells stably expressing human α1G; mainly non-inactivated protocol; values above 10 μM represented as 10 μM, values below 0.30 μM represented as 0.30 μM
T1 construct: expressed in transfected cells; host or cells: HEK 293
T1 sequence (O43497 whole entry): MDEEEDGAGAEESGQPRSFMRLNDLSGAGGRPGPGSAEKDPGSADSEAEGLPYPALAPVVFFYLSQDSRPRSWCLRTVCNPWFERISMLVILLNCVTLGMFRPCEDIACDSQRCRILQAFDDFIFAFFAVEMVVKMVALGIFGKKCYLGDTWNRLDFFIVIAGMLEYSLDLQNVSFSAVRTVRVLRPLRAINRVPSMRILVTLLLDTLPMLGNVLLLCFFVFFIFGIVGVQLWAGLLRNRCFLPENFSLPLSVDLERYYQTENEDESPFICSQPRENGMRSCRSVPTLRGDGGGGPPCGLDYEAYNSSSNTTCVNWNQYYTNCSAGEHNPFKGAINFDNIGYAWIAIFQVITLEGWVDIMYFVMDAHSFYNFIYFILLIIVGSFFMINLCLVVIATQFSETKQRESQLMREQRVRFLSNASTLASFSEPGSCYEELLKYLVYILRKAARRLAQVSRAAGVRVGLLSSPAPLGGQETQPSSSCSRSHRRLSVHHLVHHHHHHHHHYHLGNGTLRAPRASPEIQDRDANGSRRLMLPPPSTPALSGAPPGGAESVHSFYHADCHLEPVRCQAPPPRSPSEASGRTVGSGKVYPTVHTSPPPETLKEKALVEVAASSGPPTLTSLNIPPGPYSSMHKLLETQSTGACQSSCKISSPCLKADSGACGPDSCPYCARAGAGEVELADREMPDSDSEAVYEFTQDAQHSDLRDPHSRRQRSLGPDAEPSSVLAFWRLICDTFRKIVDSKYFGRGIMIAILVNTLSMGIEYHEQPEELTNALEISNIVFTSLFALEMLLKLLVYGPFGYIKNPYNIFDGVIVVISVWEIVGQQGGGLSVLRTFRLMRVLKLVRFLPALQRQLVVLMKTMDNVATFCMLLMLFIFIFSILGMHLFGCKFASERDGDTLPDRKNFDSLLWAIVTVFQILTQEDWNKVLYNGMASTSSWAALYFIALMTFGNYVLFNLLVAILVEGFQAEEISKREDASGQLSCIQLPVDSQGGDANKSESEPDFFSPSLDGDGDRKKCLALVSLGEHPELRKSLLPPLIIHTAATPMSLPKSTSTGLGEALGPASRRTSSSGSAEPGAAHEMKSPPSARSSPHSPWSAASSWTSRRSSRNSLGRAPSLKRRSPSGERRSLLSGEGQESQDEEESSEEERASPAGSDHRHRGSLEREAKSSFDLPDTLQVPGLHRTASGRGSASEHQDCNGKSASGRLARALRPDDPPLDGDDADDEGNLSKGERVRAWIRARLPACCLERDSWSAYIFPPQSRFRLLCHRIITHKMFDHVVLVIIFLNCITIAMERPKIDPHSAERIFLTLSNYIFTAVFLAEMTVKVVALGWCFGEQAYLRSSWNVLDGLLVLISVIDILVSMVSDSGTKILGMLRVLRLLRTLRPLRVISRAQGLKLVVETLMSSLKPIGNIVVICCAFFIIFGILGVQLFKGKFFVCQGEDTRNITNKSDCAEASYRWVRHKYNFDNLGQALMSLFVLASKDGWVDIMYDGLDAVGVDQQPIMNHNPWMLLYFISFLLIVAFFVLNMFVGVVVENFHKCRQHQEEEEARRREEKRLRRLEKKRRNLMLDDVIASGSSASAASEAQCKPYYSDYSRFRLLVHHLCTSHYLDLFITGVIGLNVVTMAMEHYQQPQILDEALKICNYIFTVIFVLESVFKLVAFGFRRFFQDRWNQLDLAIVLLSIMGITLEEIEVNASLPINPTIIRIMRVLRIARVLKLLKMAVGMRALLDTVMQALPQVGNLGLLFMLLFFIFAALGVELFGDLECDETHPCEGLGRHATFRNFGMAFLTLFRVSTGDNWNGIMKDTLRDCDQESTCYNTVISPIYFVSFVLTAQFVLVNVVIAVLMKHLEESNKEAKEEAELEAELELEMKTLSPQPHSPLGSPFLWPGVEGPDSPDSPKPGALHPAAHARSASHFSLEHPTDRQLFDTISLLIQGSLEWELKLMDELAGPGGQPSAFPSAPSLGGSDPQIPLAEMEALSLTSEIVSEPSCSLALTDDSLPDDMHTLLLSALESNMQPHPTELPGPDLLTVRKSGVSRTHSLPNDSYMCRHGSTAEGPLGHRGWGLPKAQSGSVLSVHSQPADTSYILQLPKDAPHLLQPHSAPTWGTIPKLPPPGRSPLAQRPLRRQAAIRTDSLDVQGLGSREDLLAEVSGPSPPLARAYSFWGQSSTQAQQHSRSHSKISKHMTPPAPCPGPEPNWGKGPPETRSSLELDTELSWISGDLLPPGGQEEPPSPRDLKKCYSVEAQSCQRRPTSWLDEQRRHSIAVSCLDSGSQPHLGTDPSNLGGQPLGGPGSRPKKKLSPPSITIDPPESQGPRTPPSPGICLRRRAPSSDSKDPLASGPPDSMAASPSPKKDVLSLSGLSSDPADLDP
Method in brief: (§1)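 Whole-cell patch clamp was run on HEK293 cells stably expressing human α1G or α1H. Cells were held at −110 mV and given a 1 s pre-pulse to −100 mV (non-inactivating protocol) before a 50 ms test pulse to −40 mV. Compounds were applied by gravity in external solution with 0.1-0.01% DMSO, and IC50 values are in μM, capped at 10 μM.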

[2] = biological target: T2, human α1H T-type channels (Homo sapiens, UniProt O95180); assay: T-type calcium channel block, whole cell patch clamp (α1H); assay type: cell-based; conditions: HEK cells stably expressing human α1H; mainly non-inactivated protocol; values above 10 μM represented as 10 μM
T2 construct: expressed in transfected cells; host or cells: HEK 293
T2 sequence (O95180 whole entry): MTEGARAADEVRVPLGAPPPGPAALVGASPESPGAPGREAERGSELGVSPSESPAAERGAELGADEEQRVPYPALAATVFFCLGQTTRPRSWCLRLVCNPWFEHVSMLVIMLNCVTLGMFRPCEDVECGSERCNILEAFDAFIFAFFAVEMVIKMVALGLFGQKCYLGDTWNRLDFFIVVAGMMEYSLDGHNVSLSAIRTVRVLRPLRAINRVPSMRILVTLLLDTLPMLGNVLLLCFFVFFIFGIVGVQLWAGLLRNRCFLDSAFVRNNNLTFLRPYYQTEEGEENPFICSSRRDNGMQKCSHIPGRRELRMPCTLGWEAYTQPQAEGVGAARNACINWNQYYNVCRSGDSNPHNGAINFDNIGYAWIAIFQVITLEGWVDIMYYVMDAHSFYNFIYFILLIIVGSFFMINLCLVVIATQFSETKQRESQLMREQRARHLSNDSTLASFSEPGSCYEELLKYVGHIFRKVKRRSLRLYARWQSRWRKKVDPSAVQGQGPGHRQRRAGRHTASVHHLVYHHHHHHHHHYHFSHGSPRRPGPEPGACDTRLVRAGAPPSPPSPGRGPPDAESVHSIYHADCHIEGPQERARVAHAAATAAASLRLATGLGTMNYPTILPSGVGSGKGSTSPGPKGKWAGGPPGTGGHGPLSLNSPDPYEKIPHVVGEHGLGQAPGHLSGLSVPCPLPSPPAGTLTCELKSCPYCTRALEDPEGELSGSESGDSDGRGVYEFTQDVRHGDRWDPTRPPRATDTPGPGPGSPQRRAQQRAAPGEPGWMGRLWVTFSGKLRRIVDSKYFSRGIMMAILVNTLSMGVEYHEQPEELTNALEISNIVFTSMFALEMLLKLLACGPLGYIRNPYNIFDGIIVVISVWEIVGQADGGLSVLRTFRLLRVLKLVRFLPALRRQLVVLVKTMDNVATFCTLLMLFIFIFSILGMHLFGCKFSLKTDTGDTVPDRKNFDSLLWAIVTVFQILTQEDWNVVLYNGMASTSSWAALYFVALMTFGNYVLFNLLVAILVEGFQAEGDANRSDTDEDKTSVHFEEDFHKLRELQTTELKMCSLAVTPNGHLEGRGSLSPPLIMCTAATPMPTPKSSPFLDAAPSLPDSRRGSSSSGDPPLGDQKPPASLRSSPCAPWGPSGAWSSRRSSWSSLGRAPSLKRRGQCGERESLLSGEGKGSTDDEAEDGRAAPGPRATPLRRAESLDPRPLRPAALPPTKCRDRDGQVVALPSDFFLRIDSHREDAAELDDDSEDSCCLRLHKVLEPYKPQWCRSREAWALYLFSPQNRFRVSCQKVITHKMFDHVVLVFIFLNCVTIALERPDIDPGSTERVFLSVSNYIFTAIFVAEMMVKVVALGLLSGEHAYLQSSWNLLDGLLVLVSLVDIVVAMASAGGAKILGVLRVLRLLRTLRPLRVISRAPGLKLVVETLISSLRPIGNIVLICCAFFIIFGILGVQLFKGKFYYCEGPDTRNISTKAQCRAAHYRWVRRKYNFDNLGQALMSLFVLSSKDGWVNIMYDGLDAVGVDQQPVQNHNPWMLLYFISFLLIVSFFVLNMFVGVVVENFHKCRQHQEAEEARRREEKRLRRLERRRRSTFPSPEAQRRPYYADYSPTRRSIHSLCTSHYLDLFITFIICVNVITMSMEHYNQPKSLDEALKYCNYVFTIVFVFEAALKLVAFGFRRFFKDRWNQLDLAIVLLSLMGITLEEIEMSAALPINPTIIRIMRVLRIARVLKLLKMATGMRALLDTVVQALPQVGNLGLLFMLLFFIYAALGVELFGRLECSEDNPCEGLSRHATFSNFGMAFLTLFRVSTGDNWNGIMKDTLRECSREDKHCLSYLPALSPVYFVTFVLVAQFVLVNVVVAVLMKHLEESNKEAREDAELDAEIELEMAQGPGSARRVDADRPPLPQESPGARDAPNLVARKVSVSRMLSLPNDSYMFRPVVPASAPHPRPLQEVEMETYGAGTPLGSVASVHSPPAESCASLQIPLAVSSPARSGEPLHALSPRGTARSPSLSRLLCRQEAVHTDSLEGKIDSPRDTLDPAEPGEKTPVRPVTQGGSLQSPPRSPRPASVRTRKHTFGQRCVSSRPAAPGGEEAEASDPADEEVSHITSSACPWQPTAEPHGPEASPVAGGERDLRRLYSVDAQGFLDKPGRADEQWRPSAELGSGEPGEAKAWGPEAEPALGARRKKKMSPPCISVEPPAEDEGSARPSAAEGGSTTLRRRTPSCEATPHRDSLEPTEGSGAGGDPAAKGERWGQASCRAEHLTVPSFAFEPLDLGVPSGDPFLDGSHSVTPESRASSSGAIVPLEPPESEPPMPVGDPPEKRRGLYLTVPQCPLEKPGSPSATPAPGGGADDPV
Method in brief: as §1

IC50 [1]	IC50 [2]	SMILES
1330 nM	790 nM	O=C(NC[C@H]1CC[C@@H](NCC(=O)N2CCCC2)CC1)c1cc(C(F)(F)F)cc(C(F)(F)F)c1 [Compound 39, N-((cis-4-(2-oxo-2-(pyrrolidin-1-yl)ethylamino)cyclohexyl)methyl)-3,5-bis(trifluoromethyl)benzamide]
1570 nM	2330 nM	COc1cccnc1CN[C@H]1CC[C@@H](CNC(=O)c2cc(C(F)(F)F)cc(C(F)(F)F)c2)CC1 [Compound 11, N-((cis-4-((3-methoxypyridin-2-yl)methylamino)cyclohexyl)methyl)-3,5-bis(trifluoromethyl)benzamide]
340 nM	590 nM	COc1ccc(CN[C@H]2CC[C@@H](CNC(=O)c3cc(F)cc(C(F)(F)F)c3)CC2)c(OC)c1 [Compound 24, N-((cis-4-(2,4-dimethoxybenzylamino)cyclohexyl)methyl)-3-fluoro-5-(trifluoromethyl)benzamide]
≥ 10000 nM	4330 nM	COc1cc(F)cc(C(=O)NC[C@H]2CC[C@H](NCC(=O)N3CCOCC3(C)C)CC2)c1 [Compound 208, N-(((1r,4r)-4-(2-(3,3-dimethylmorpholino)-2-oxoethylamino)cyclohexyl)methyl)-3-fluoro-5-methoxybenzamide]
≤ 300 nM	2470 nM	O=C(NC[C@H]1CC[C@H](NCc2cccc(F)c2O)CC1)c1cc(C(F)(F)F)cc(C(F)(F)F)c1 [Compound 31, N-((trans-4-(3-fluoro-2-hydroxybenzylamino)cyclohexyl)methyl)-3,5-bis(trifluoromethyl)benzamide]
1800 nM	570 nM	CC(C)(C)NC(=O)CN[C@H]1CC[C@H](CNC(=O)c2cc(F)cc(Cl)c2)CC1 [Compound 201, N-(((1r,4r)-4-(2-(tert-butylamino)-2-oxoethylamino)cyclohexyl)methyl)-3-chloro-5-fluorobenzamide]
4050 nM	1600 nM	COc1cc(F)cc(C(=O)NC[C@H]2CC[C@H](NCC(=O)N3CCCC3(C)C)CC2)c1 [Compound 209, N-(((1r,4r)-4-(2-(2,2-dimethylpyrrolidin-1-yl)-2-oxoethylamino)cyclohexyl)methyl)-3-fluoro-5-methoxybenzamide]
3350 nM	4840 nM	O=C(NC[C@H]1CC[C@@H](NCc2cccnc2F)CC1)c1cc(C(F)(F)F)cc(C(F)(F)F)c1 [Compound 8, N-((cis-4-((2-fluoropyridin-3-yl)methylamino)cyclohexyl)methyl)-3,5-bis(trifluoromethyl)benzamide]
≤ 300 nM	190 nM	CC(C)(C)NC(=O)CN[C@H]1CC[C@@H](CNC(=O)c2cc(C(F)(F)F)cc(C(F)(F)F)c2)CC1 [Compound 40, N-((cis-4-(2-(tert-butylamino)-2-oxoethylamino)cyclohexyl)methyl)-3,5-bis(trifluoromethyl)benzamide]
330 nM	3450 nM	O=C(NC[C@H]1CC[C@H](NCc2c(O)cccc2F)CC1)c1cc(C(F)(F)F)cc(C(F)(F)F)c1 [Compound 32, N-((trans-4-(2-fluoro-6-hydroxybenzylamino)cyclohexyl)methyl)-3,5-bis(trifluoromethyl)benzamide]
≤ 300 nM	450 nM	O=C(CN[C@H]1CC[C@@H](CNC(=O)c2cc(C(F)(F)F)cc(C(F)(F)F)c2)CC1)NN1CCCCC1 [Compound 45, N-((cis-4-(2-oxo-2-(piperidin-1-ylamino)ethylamino)cyclohexyl)methyl)-3,5-bis(trifluoromethyl)benzamide]
440 nM	590 nM	CCN(CC)C(=O)CN[C@H]1CC[C@H](CNC(=O)c2cc(C(F)(F)F)cc(C(F)(F)F)c2)CC1 [Compound 56, N-((trans-4-(2-(diethylamino)-2-oxoethylamino)cyclohexyl)methyl)-3,5-bis(trifluoromethyl)benzamide]
2020 nM	1100 nM	CN(C(=O)CN[C@H]1CC[C@H](CNC(=O)c2cc(F)cc(Cl)c2)CC1)C(C)(C)C [Compound 205, N-(((1r,4r)-4-(2-(tert-butyl(methyl)amino)-2-oxoethylamino)cyclohexyl)methyl)-3-chloro-5-fluorobenzamide]
730 nM	1140 nM	Cc1ccc(NC(=O)CN[C@H]2CC[C@H](CNC(=O)c3cc(C(F)(F)F)cc(C(F)(F)F)c3)CC2)nc1 [Compound 77, N-((trans-4-(2-(5-methylpyridin-2-ylamino)-2-oxoethylamino)cyclohexyl)methyl)-3,5-bis(trifluoromethyl)benzamide]
4420 nM	1030 nM	COc1cc(F)cc(C(=O)NC[C@H]2CC[C@H](NCC(=O)NC(C)(C)C)CC2)c1 [Compound 206, N-(((1r,4r)-4-(2-(tert-butylamino)-2-oxoethylamino)cyclohexyl)methyl)-3-fluoro-5-methoxybenzamide]
830 nM	≥ 10000 nM	NC1(C(=O)N[C@H]2CC[C@H](CC(=O)Nc3cc(C(F)(F)F)cc(C(F)(F)F)c3)CC2)CCCC1 [Compound 124, 1-amino-N-(trans-4-(2-(3,5-bis(trifluoromethyl)phenylamino)-2-oxoethyl)cyclohexyl)cyclopentanecarboxamide]
1590 nM	1730 nM	O=C(NC[C@H]1CC[C@H](NCC(=O)N2CCC(F)(F)C2)CC1)c1cc(C(F)(F)F)cc(C(F)(F)F)c1 [Compound 61, N-((trans-4-(2-(3,3-difluoropyrrolidin-1-yl)-2-oxoethylamino)cyclohexyl)methyl)-3,5-bis(trifluoromethyl)benzamide]
1940 nM	260 nM	COc1cc(F)cc(C(=O)NC[C@H]2CC[C@@H](NCC(=O)NC3(C)CCC3)CC2)c1 [Compound 197, 3-fluoro-5-methoxy-N-(((1s,4s)-4-(2-(1-methylcyclobutylamino)-2-oxoethylamino)cyclohexyl)methyl)benzamide]
≤ 300 nM	210 nM	CCC1CCCN1C(=O)CN[C@H]1CC[C@@H](CNC(=O)c2cc(C(F)(F)F)cc(C(F)(F)F)c2)CC1 (stereo partly drawn) [Compound 54, N-((cis-4-(2-(2-ethylpyrrolidin-1-yl)-2-oxoethylamino)cyclohexyl)methyl)-3,5-bis(trifluoromethyl)benzamide]
4280 nM	2470 nM	COC1CCC(N(C)C(=O)CN[C@H]2CC[C@@H](CNC(=O)c3cc(C(F)(F)F)cc(C(F)(F)F)c3)CC2)CC1 (stereo partly drawn) [Compound 50, N-((cis-4-(2-((4-methoxycyclohexyl)(methyl)amino)-2-oxoethylamino)cyclohexyl)methyl)-3,5-bis(trifluoromethyl)benzamide]
1340 nM	3050 nM	CC(C)(C)c1nc(CN[C@H]2CC[C@H](CNC(=O)c3cc(C(F)(F)F)cc(C(F)(F)F)c3)CC2)no1 [Compound 66, N-((trans-4-((5-tert-butyl-1,2,4-oxadiazol-3-yl)methylamino)cyclohexyl)methyl)-3,5-bis(trifluoromethyl)benzamide]
2240 nM	820 nM	CC(C)(C)NC(=O)CN[C@H]1CC[C@@H](CNC(=O)c2cccc(Br)c2)CC1 [Compound 183, 3-bromo-N-(((1s,4s)-4-(2-(tert-butylamino)-2-oxoethylamino)cyclohexyl)methyl)benzamide]
310 nM	700 nM	Cc1ccc(NC(=O)CN[C@H]2CC[C@@H](CNC(=O)c3cc(C(F)(F)F)cc(C(F)(F)F)c3)CC2)nc1 [Compound 73, N-((cis-4-(2-(5-methylpyridin-2-ylamino)-2-oxoethylamino)cyclohexyl)methyl)-3,5-bis(trifluoromethyl)benzamide]
2890 nM	≥ 10000 nM	O=C(C[C@H]1CC[C@@H](NC(=O)[C@@H]2C[C@@H](c3ccccc3)CN2)CC1)NCc1cccc(OC(F)(F)F)c1 [Compound 116, (2S,4S)-N-(cis-4-(2-oxo-2-(3-(trifluoromethoxy)benzylamino)ethyl)cyclohexyl)-4-phenylpyrrolidine-2-carboxamide]
2790 nM	7870 nM	O=C(C[C@H]1CC[C@@H](NC(=O)[C@H]2CCCN2)CC1)Nc1cc(C(F)(F)F)cc(C(F)(F)F)c1 [Compound 146, (R)-N-(cis-4-(2-(3,5-bis(trifluoromethyl)phenylamino)-2-oxoethyl)cyclohexyl)pyrrolidine-2-carboxamide]
1100 nM	4930 nM	O=C(NC[C@H]1CC[C@@H](NC(=O)[C@@H]2CC[C@H](c3ccccc3)N2)CC1)c1cc(C(F)(F)F)cc(C(F)(F)F)c1 [Compound 127, (2S,5R)-N-(cis-4-((3,5-bis(trifluoromethyl)benzamido)methyl)cyclohexyl)-5-phenylpyrrolidine-2-carboxamide]
910 nM	450 nM	O=C(CN[C@H]1CC[C@@H](CNC(=O)c2cc(C(F)(F)F)cc(C(F)(F)F)c2)CC1)NCC(F)(F)F [Compound 43, N-((cis-4-(2-oxo-2-(2,2,2-trifluoroethylamino)ethylamino)cyclohexyl)methyl)-3,5-bis(trifluoromethyl)benzamide]
880 nM	1530 nM	O=C(C[C@H]1CC[C@H](NC(=O)[C@@H]2CCCN2)CC1)Nc1cc(C(F)(F)F)cc(C(F)(F)F)c1 [Compound 119, (S)-N-(trans-4-(2-(3,5-bis(trifluoromethyl)phenylamino)-2-oxoethyl)cyclohexyl)pyrrolidine-2-carboxamide]
≤ 300 nM	560 nM	CCC1CCCN1C(=O)CN[C@H]1CC[C@H](CNC(=O)c2cc(C(F)(F)F)cc(C(F)(F)F)c2)CC1 (stereo partly drawn) [Compound 68, N-((trans-4-(2-(2-ethylpyrrolidin-1-yl)-2-oxoethylamino)cyclohexyl)methyl)-3,5-bis(trifluoromethyl)benzamide]
